{
  "source": "patent US20260256792A1",
  "about": "“TREATMENT OF CHRONIC SPONTANEOUS URTICARIA BY ADMINISTERING (R)-2-[3-[4-AMINO-3-(2-FLUORO-4-PHENOXY-PHENYL)PYRAZOLO[3,4-D]PYRIMIDIN-1-YL]PIPERIDINE-1-CARBONYL]-4-METHYL-4-[4-(OXETAN-3-YL)PIPERAZIN-1-YL]PENT-2-ENENITRILE” (priority 2023, published 2026)",
  "tested_on": "moderate-to-severe chronic spontaneous urticaria (CSU)",
  "test": "Phase 2 CSU study: urticaria activity score over 7 days (UAS7)",
  "type": "in vivo, human",
  "settings": "Omalizumab-naïve, 400 mg TID",
  "from_the_text": "The study comprises a 12 week, randomized, double-blind, placebo-controlled, multi-center, dose-ranging efficacy and safety phase, followed by a 40 week open label extension (OLE) phase (see FIG. 1). The study consists of three phases and an optional OLE phase. […] Clinically, CSU is characterized by the spontaneous and recurrent appearance of pruritic hives. The proposed primary endpoints were the UAS7 at Week 12 in EU and EU reference countries and the ISS7 in the US. Regardless of where a participant was from, all assessments were the same. The UAS7 score is a composite score containing both the HSS7 and the ISS7. This allowed a global assessment of the two key components of urticaria: hives and itch. […] The UAS is a validated PRO measure. […] The daily UAS scores range from 0 to 6 point/day. […] Patients were to complete the UAS using the e-diary. […] The following secondary endpoints were to be analyzed using the same approach as for the primary endpoint: • Change from baseline in UAS7 at Week 4 • Change from baseline in UAS7 at Week 12 (for US and US reference countries) • Change from baseline in ISS7 at Week 12 (except US and US reference countries) • Change from baseline in HSS7 at Week 12 The following responder secondary endpoints were to be analyzed using the Cochran-Mantel-Haenszel test adjusted by region: • Proportion of participants with UAS7<6 at Week 12 • Proportion of participants with UAS7=0 at Week 12 Participants who received selected prohibited medications and/or rescue medications were to be considered as non-responders for time points after the medication usage. For other participants, all available data including those collected during the off-treatment period were to be used to determine the responder/non-responder status. Missing data were to be considered as non-responders.",
  "data": [
    {"compound": "CC(C)(C=C(C#N)C(=O)N1CCC[C@@H](n2nc(-c3ccc(Oc4ccccc4)cc3F)c3c(N)ncnc32)C1)N1CCN(C2COC2)CC1", "note": "[rilzabrutinib, (R)-2-[3-[4-amino-3-(2-fluoro-4-phenoxy-phenyl)pyrazolo[3,4-d]pyrimidin-1-yl]piperidine-1-carbonyl]-4-methyl-4-[4-(oxetan-3-yl)piperazin-1-yl]pent-2-enenitrile]", "values": [
      {"measurement": "Imputed non-responder n (%), UAS7 = 0", "setting": "Week 3", "result": "0 n (%)"},
      {"measurement": "Imputed non-responder n (%), UAS7 ≤6", "setting": "Week 3", "result": "0 n (%)"},
      {"measurement": "Non-responder n (%), UAS7 = 0", "setting": "Week 3", "result": "32 (91.4) n (%)"},
      {"measurement": "Non-responder n (%), UAS7 ≤6", "setting": "Week 3", "result": "27 (77.1) n (%)"},
      {"measurement": "OR for rilzabrutinib vs. placebo, UAS7 = 0", "setting": "Week 3", "result": 3.625},
      {"measurement": "OR for rilzabrutinib vs. placebo, UAS7 ≤6", "setting": "Week 3", "result": 3.239},
      {"measurement": "RRD (%) for rilzabrutinib vs. placebo, UAS7 = 0", "setting": "Week 3", "result": 5.8, "unit": "%"},
      {"measurement": "RRD (%) for rilzabrutinib vs. placebo, UAS7 ≤6", "setting": "Week 3", "result": 13.6, "unit": "%"},
      {"measurement": "Responder n (%), UAS7 = 0", "setting": "Week 3", "result": "3 (8.6) n (%)"},
      {"measurement": "Responder n (%), UAS7 ≤6", "setting": "Week 3", "result": "8 (22.9) n (%)"},
      {"measurement": "Imputed non-responder n (%), UAS7 = 0", "setting": "Week 4", "result": "3 (8.6) n (%)"},
      {"measurement": "Imputed non-responder n (%), UAS7 ≤6", "setting": "Week 4", "result": "3 (8.6) n (%)"},
      {"measurement": "Non-responder n (%), UAS7 = 0", "setting": "Week 4", "result": "32 (91.4) n (%)"},
      {"measurement": "Non-responder n (%), UAS7 ≤6", "setting": "Week 4", "result": "30 (85.7) n (%)"},
      {"measurement": "OR for rilzabrutinib vs. placebo, UAS7 = 0", "setting": "Week 4", "result": 1.460},
      {"measurement": "OR for rilzabrutinib vs. placebo, UAS7 ≤6", "setting": "Week 4", "result": 1.185},
      {"measurement": "RRD (%) for rilzabrutinib vs. placebo, UAS7 = 0", "setting": "Week 4", "result": 2.5, "unit": "%"},
      {"measurement": "RRD (%) for rilzabrutinib vs. placebo, UAS7 ≤6", "setting": "Week 4", "result": 1.8, "unit": "%"},
      {"measurement": "Responder n (%), UAS7 = 0", "setting": "Week 4", "result": "3 (8.6) n (%)"},
      {"measurement": "Responder n (%), UAS7 ≤6", "setting": "Week 4", "result": "5 (14.3) n (%)"},
      {"measurement": "Imputed non-responder n (%), UAS7 = 0", "setting": "Week 5", "result": "2 (5.7) n (%)"},
      {"measurement": "Imputed non-responder n (%), UAS7 ≤6", "setting": "Week 5", "result": "2 (5.7) n (%)"},
      {"measurement": "Non-responder n (%), UAS7 = 0", "setting": "Week 5", "result": "29 (82.9) n (%)"},
      {"measurement": "Non-responder n (%), UAS7 ≤6", "setting": "Week 5", "result": "25 (71.4) n (%)"},
      {"measurement": "OR for rilzabrutinib vs. placebo, UAS7 = 0", "setting": "Week 5", "result": 6.971},
      {"measurement": "OR for rilzabrutinib vs. placebo, UAS7 ≤6", "setting": "Week 5", "result": 5.923},
      {"measurement": "RRD (%) for rilzabrutinib vs. placebo, UAS7 = 0", "setting": "Week 5", "result": 13.2, "unit": "%"},
      {"measurement": "RRD (%) for rilzabrutinib vs. placebo, UAS7 ≤6", "setting": "Week 5", "result": 19.7, "unit": "%"},
      {"measurement": "Responder n (%), UAS7 = 0", "setting": "Week 5", "result": "6 (17.1) n (%)"},
      {"measurement": "Responder n (%), UAS7 ≤6", "setting": "Week 5", "result": "10 (28.6) n (%)"},
      {"measurement": "Imputed non-responder n (%), UAS7 = 0", "setting": "Week 6", "result": "4 (11.4) n (%)"},
      {"measurement": "Imputed non-responder n (%), UAS7 ≤6", "setting": "Week 6", "result": "4 (11.4) n (%)"},
      {"measurement": "Non-responder n (%), UAS7 = 0", "setting": "Week 6", "result": "28 (80.0) n (%)"},
      {"measurement": "Non-responder n (%), UAS7 ≤6", "setting": "Week 6", "result": "27 (77.1) n (%)"},
      {"measurement": "OR for rilzabrutinib vs. placebo, UAS7 = 0", "setting": "Week 6", "result": 8.082},
      {"measurement": "OR for rilzabrutinib vs. placebo, UAS7 ≤6", "setting": "Week 6", "result": 1.274},
      {"measurement": "RRD (%) for rilzabrutinib vs. placebo, UAS7 = 0", "setting": "Week 6", "result": 15.6, "unit": "%"},
      {"measurement": "RRD (%) for rilzabrutinib vs. placebo, UAS7 ≤6", "setting": "Week 6", "result": 3.7, "unit": "%"},
      {"measurement": "Responder n (%), UAS7 = 0", "setting": "Week 6", "result": "7 (20.0) n (%)"},
      {"measurement": "Responder n (%), UAS7 ≤6", "setting": "Week 6", "result": "8 (22.9) n (%)"},
      {"measurement": "Imputed non-responder n (%), UAS7 = 0", "setting": "Week 7", "result": "5 (14.3) n (%)"},
      {"measurement": "Imputed non-responder n (%), UAS7 ≤6", "setting": "Week 7", "result": "5 (14.3) n (%)"},
      {"measurement": "Non-responder n (%), UAS7 = 0", "setting": "Week 7", "result": "32 (91.4) n (%)"},
      {"measurement": "Non-responder n (%), UAS7 ≤6", "setting": "Week 7", "result": "26 (74.3) n (%)"},
      {"measurement": "OR for rilzabrutinib vs. placebo, UAS7 = 0", "setting": "Week 7", "result": 3.625},
      {"measurement": "OR for rilzabrutinib vs. placebo, UAS7 ≤6", "setting": "Week 7", "result": 2.685},
      {"measurement": "RRD (%) for rilzabrutinib vs. placebo, UAS7 = 0", "setting": "Week 7", "result": 5.8, "unit": "%"},
      {"measurement": "RRD (%) for rilzabrutinib vs. placebo, UAS7 ≤6", "setting": "Week 7", "result": 13.4, "unit": "%"},
      {"measurement": "Responder n (%), UAS7 = 0", "setting": "Week 7", "result": "3 (8.6) n (%)"},
      {"measurement": "Responder n (%), UAS7 ≤6", "setting": "Week 7", "result": "9 (25.7) n (%)"},
      {"measurement": "Imputed non-responder n (%), UAS7 = 0", "setting": "Week 8", "result": "7 (20.0) n (%)"},
      {"measurement": "Imputed non-responder n (%), UAS7 ≤6", "setting": "Week 8", "result": "7 (20.0) n (%)"},
      {"measurement": "Non-responder n (%), UAS7 = 0", "setting": "Week 8", "result": "32 (91.4) n (%)"},
      {"measurement": "Non-responder n (%), UAS7 ≤6", "setting": "Week 8", "result": "26 (74.3) n (%)"},
      {"measurement": "OR for rilzabrutinib vs. placebo, UAS7 = 0", "setting": "Week 8", "result": 1.351},
      {"measurement": "OR for rilzabrutinib vs. placebo, UAS7 ≤6", "setting": "Week 8", "result": 1.513},
      {"measurement": "RRD (%) for rilzabrutinib vs. placebo, UAS7 = 0", "setting": "Week 8", "result": 1.9, "unit": "%"},
      {"measurement": "RRD (%) for rilzabrutinib vs. placebo, UAS7 ≤6", "setting": "Week 8", "result": 6.3, "unit": "%"},
      {"measurement": "Responder n (%), UAS7 = 0", "setting": "Week 8", "result": "3 (8.6) n (%)"},
      {"measurement": "Responder n (%), UAS7 ≤6", "setting": "Week 8", "result": "9 (25.7) n (%)"},
      {"measurement": "Imputed non-responder n (%), UAS7 = 0", "setting": "Week 9", "result": "6 (17.1) n (%)"},
      {"measurement": "Imputed non-responder n (%), UAS7 ≤6", "setting": "Week 9", "result": "6 (17.1) n (%)"},
      {"measurement": "Non-responder n (%), UAS7 = 0", "setting": "Week 9", "result": "32 (91.4) n (%)"},
      {"measurement": "Non-responder n (%), UAS7 ≤6", "setting": "Week 9", "result": "24 (68.6) n (%)"},
      {"measurement": "OR for rilzabrutinib vs. placebo, UAS7 = 0", "setting": "Week 9", "result": 0.893},
      {"measurement": "OR for rilzabrutinib vs. placebo, UAS7 ≤6", "setting": "Week 9", "result": 3.358}
    ]}
  ]
}
